Laboratory results from publication PMC8403366, “Functional significance of gain-of-function H19 lncRNA in skeletal muscle differentiation and anti-obesity effects” (Genome Medicine, 2021).

Experiments:
iPSC-SkMC = assay: Immunoblot of DMD, phosphorylated DMD and Ub-DMD in iPSC-SkMC; assay type: cell-based, human; settings: for DMD phosphorylation / DMD protein levels / Ub-DMD: BMD iPSC-SkMC
Excerpt: The human skin fibroblasts GM09503 (healthy donor), GM02298 (BMD patient), or GM04569 (BMD patient) were obtained from the Coriell Institute and reprogramed to iPSC by Baylor Human Stem Cell Core. Clinical information is summarized in Additional file 2: Table S2. iPSCs from patients with BMD were used to study the potential molecular mechanisms of DMD stability within pathological context. iPSCs were maintained in feeder-free conditions using the mTeSR™1 medium (Stemcell technologies) on hESC-Qualified Matrigel (Corning) coated plates at 37 °C with 5% CO2. H19 knockout iPSC cell lines were generated using the CRISPR-Cas9 genome editing system, as described previously. iPSCs transfected with sgRNAs were selected with puromycin (250 ng/ml) for 7 days. Emerging iPSC colonies were picked individually and further expanded in mTeSR™1 medium. The presence of targeted gene knockout was confirmed by further genotyping characterization and PCR product sequencing.
For myogenic differentiation, iPSCs were differentiated into skeletal muscle cells using Skeletal Muscle Differentiation Kit (Genea Biocells) according to the manufacturer’s protocol. Briefly, iPSCs were plated onto a collagen I coated plate and maintained for 6–10 days in Skeletal Muscle Induction Medium (Genea Biocells) until confluent. Dissociated myogenic precursors were then plated on a collagen I coated plate and cultured in Skeletal Myoblast Medium (Genea Biocells) for 6–8 days. When confluent, cells were maintained in Myotube Medium or Myotube Fusion Medium (Genea Biocells). Cryopreserved stocks of myoblasts Genea002 were obtained from Genea Biocells. Genea002 was initially maintained in Skeletal Myoblast Medium and changed to Myotube Medium or Myotube Fusion Medium when confluent.

[1] = system: interaction between H19 and DMD; assay: RIP assay in iPSC-SkMC; assay type: cell-based, human; settings: for interaction between H19 and DMD: iPSC-SkMC from healthy donor 09503 or BMD patient 02298; for interaction between HuR and Actin: specificity control
MRCKα = settings: cited from earlier work
Excerpt: (§1) SNCA plays important roles in Parkinson’s disease through mediating the aggregation of protofibrils. […] MRCKα is a se ...

C57BL/6 J mice = assay: RT-qPCR of H19 and Dmd in TA of treated mice; assay type: in vivo, mouse; settings: male mice, n = 5
Description: Total RNA was isolated from the snap-frozen samples using the RNeasy Plus Mini Kit (Qiagen). cDNA was synthesized from 1 μg of RNA using the iScript™ cDNA Synthesis Kit (Bio-Rad). Quantitative real-time PCR was performed using SsoAdvanced™ Universal SYBR® Green Supermix (Bio-Rad).

[2] = target: T1, DMD C-terminus (ZnF domain) WT (human, UniProt P11532 3046-3685); assay: alpha assay saturation; settings: EMSA and RNA-protein binding: 50 mM Tris-HCl pH 7.9, 10% glycerol, 100 mM KCl, 5 mM MgCl2, 10 mM beta-ME, 0.1% NP-40, 30 C, 30 min (EMSA) or 1 h (dot blot) …
T1 sequence (P11532 3046-3685): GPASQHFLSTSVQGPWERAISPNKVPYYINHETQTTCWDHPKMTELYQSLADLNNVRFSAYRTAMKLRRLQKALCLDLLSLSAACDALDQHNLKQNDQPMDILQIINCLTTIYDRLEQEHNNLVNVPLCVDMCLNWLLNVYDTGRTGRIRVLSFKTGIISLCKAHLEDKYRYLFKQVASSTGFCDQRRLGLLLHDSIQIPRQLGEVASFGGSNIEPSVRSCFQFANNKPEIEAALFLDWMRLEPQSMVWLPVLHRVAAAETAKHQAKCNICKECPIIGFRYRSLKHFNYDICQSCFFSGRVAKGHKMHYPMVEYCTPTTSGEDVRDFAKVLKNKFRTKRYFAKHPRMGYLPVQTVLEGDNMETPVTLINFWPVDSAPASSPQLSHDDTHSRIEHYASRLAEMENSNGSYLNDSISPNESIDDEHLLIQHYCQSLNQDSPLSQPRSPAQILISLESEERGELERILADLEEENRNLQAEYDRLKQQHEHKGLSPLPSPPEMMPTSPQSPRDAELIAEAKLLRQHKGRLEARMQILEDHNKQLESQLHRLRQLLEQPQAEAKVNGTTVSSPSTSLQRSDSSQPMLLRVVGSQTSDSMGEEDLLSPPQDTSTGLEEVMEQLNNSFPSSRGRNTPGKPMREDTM

[3] = target: T1, DMD C-terminus (ZnF domain) WT; assay: alpha assay competition; settings: EMSA and RNA-protein binding: 50 mM Tris-HCl pH 7.9, 10% glycerol, 100 mM KCl, 5 mM MgCl2, 10 mM beta-ME, 0.1% NP-40, 30 C, 30 min (EMSA) or 1 h (dot blot) …
SNCA = settings: cited from earlier work
Excerpt: as §1

[4] = target: T1, DMD C-terminus (ZnF domain) WT; assay: alpha assay competition; EMSA and RNA-protein binding: 50 mM Tris-HCl pH 7.9, 10% glycerol, 100 mM KCl, 5 mM MgCl2, 10 mM beta-ME, 0.1% NP-40, 30 C, 30 min (EMSA) or 1 h (dot blot); alpha assay conditions not in the material; settings: protein: recombinant, tags: His, label: 32P (EMSA), single strand

In the case of `O=C(Nc1cn[nH]c1-c1ccccn1)c1nn(C2CCNCC2)cc1Cl` [BDP5290], the DMD phosphorylation (iPSC-SkMC) is reported as “reduced”, the DMD protein levels (iPSC-SkMC) is reported as “improved” and the Ub-DMD (iPSC-SkMC) is reported as “reduced”. The “interaction between H19 and DMD” value [1] was “significantly improved”, the “interaction between HuR and Actin” value [1] was “minimal effects” and the IC50 (MRCKα) was 10 nM.

In the case of “N-terminal-ELTNEIPAELTNEIPA-Linker-5'-[2'-F-U][2'-F-G][2'-F-G][2'-F-C][2'-F-C][2'-F-A][2'-F-A][2'-F-U][2'-F-G][2'-F-C][2'-F-C][2'-F-C][2'-F-U][2'-F-G][2'-F-G][2'-F-C][2'-F-U][2'-F-C][2'-F-A][2'-F-C][2'-F-A][2'-F-A][2'-F-A][2'-F-U][2'-F-A][2'-F-C][2'-F-C][2'-F-A][2'-F-C][2'-F-U]-3' [AGR-Scr, agrin peptide conjugated to scramble oligonucleotides; control, reference compound]”, the “expression of H19 in TA” value (C57BL/6 J mice) is reported as “minimal effects” and the “expression of the Dmd transcript in TA” value (C57BL/6 J mice) is reported as “minimal effects”.

In the case of human H19 sense transcript, the Kd [2] is reported as 71.1 nM.

Work on H19-WT mimic yielded a Kd [3] of 130 nM.

For “N-terminal-ELTNEIPAELTNEIPA-Linker-5'-[2’-F-C][2’-F-U][2’-F-C][2’-F-U][2’-F-U][2’-F-A][2’-F-C][2’-F-A][2’-F-A][2’-F-U][2’-F-C][2’-F-U][2’-F-G][2’-F-A][2’-F-G][2’-F-C][2’-F-U][2’-F-U][2’-F-U][2’-F-C][2’-F-C][2’-F-A][2’-F-C][2’-F-A][2’-F-G][2’-F-U][2’-F-U][2’-F-U][2’-F-C][2’-F-C]-3' [AGR-H19-Rlof, agrin peptide conjugated to H19 RNA loss-of-function mimic]”, the “expression of H19 in TA” value (C57BL/6 J mice) was “minimal effects” and the “expression of the Dmd transcript in TA” value (C57BL/6 J mice) was “minimal effects”.

In the case of mouse H19 sense transcript, the Kd [2] is reported as 78.6 nM.

For `N#Cc1c(C(F)(F)F)c([N+](=O)[O-])c(-c2cccc([N+](=O)[O-])c2)[nH]c1=O` [SC-D, SynuClean-D], the DMD phosphorylation (iPSC-SkMC) was “reduced”, the DMD protein levels (iPSC-SkMC) was “improved” and the Ub-DMD (iPSC-SkMC) was “reduced”. The “phosphorylation of DMD” value (iPSC-SkMC; iPSC-SkMC with exogenous expression of SNCA) was “attenuated”, the “interaction between H19 and DMD” value [1] was “significantly improved” and the “interaction between HuR and Actin” value [1] was “minimal effects”. For the same molecule, the “SNCA aggregation in muscle tissues” value (SNCA) was “reduces”.

For CUUUGUUUCUGAGCUUUCCUGUCUUUCCUU (ssRNA) [hH19 1951-1980 WT], the Kd ([4]; biotin or unlabeled (alpha assay)) was 116 nM.

CUUUAUUUCUGAGCUUUCCUAUCUUUCCUU (ssRNA) [hH19 1951-1980 Rgof (G1955A/G1971A)] showed a Kd [4] of 14.9 nM.
